Data: paper PMC5514153, “Targeting PTPRZ inhibits stem cell-like properties and tumorigenicity in glioblastoma cells” (Scientific Reports, 2017)

Columns and labels:
PTPRZ1 V1911F = target: T1, PTPRZ1 V1911F (Homo sapiens, UniProt P23471, V1911F); test: Inhibitor sensitivity of point mutant PTPRZ1 V1911F; assay type: biochemical; conditions: 10 µM, vs wild-type PTPRZ1
T1 construct: Point mutants of the PTPRZ1-ICR, PTPRG-ICR, and PTPN1 catalytic domain were generated; GST (N); made in house
Source text: (§1) Figure 5 Structural basis for PTPRZ inhibition of NAZ2329. (A) An enlarged view of the X-ray structure of human PTPRZ1-D1 complexed with NAZ2329 (PDB ID: 5H08) (left), X-ray structure of the apo (open) form of PTPRZ1-D1 (PDB ID: 5AWX, ref. [6], middle) and a computer-modeled structure of the closed form of PTPRZ1-D1 complexed with a competitive inhibitor, SCB4380 (ref. [6], right), are shown. PTPRZ1-D1 is shown as a gray surface representation, in which Cys1933 at the active site and Val-1911 at the bottom of the allosteric pocket are indicated in red and yellow, respectively. Inhibitors are colored according to the atomic species in a stick figure representation as follows: oxygen (red), nitrogen (blue), sulfur (yellow), and carbon (green). The bottom figures show the conformation of the WPD loop (orange) as cartoon representations, in which Asp1901 and Cys1933 are indicated by orange and red spheres, respectively. Side chains of Arg1939 at the active site, Met1902 in the WPD loop, and Val-1911 at the bottom of the allosteric binding area are also shown in the stick representation. (B) LigPlot representation of the NAZ2329 interaction with PTPRZ1-D1. The predicted hydrogen bonds (broken black lines) and residues (red spoked arcs) involved in the hydrophobic interaction are shown. […]

PTPRZ1 M1902F, M1902H = test: Inhibitor sensitivity of point mutants PTPRZ1 M1902F and M1902H; assay type: biochemical, human; conditions: 10 µM, vs wild-type PTPRZ1
Source text: as §1

T1 sequence (P23471 1663-2315 V1911F limits assumed): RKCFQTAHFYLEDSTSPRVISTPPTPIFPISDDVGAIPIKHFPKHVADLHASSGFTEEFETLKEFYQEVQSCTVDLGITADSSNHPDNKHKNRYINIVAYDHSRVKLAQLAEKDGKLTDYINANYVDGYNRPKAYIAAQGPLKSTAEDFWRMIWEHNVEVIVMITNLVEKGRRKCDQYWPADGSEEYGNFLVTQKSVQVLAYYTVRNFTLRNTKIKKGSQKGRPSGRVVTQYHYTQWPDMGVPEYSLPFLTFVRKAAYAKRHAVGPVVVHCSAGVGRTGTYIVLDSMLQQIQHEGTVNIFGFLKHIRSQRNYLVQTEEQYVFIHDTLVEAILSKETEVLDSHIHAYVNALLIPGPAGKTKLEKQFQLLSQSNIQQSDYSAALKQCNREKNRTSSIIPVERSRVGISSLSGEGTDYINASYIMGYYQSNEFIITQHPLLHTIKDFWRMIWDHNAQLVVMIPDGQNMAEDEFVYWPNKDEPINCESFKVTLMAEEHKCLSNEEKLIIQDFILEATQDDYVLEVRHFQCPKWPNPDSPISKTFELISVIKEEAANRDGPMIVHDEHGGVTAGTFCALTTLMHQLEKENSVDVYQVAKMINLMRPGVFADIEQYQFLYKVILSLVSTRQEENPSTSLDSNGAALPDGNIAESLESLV

Structure (SMILES): CCOc1ccc(C(F)(F)F)cc1CSc1ccsc1C(=O)NS(=O)(=O)c1ccccc1 [NAZ2329]
- effect of V1911F substitution on sensitivity to inhibitor (PTPRZ1 V1911F): markedly reduced the sensitivity
- effect of M1902F / M1902H substitution on sensitivity to inhibitor (PTPRZ1 M1902F, M1902H): did not affect the sensitivity to the inhibitor
